Measurements published in ChEMBL document CHEMBL1201862, “PubChem BioAssay data set” (2004).
The source made the active and inactive calls.

Key:
[1] = target: T1, Kappa-type opioid receptor (Homo sapiens, UniProt P41145); assay type: functional
Mu-type opioid receptor [2] = target: T2, Mu-type opioid receptor (Homo sapiens, UniProt P35372); experiment: MOR agonists by imaging, SAR follow-up, image-based (AID 2352); assay type: functional
[3] = target: T3, Delta-type opioid receptor (Homo sapiens, UniProt P41143); experiment: HTS Image-Based Screen for Agonists of the DOR Receptor. [Related pubchem assays (depositor defined):AID1777, AID1786, AID2133]; assay type: functional
T3 sequence (P41143 whole entry): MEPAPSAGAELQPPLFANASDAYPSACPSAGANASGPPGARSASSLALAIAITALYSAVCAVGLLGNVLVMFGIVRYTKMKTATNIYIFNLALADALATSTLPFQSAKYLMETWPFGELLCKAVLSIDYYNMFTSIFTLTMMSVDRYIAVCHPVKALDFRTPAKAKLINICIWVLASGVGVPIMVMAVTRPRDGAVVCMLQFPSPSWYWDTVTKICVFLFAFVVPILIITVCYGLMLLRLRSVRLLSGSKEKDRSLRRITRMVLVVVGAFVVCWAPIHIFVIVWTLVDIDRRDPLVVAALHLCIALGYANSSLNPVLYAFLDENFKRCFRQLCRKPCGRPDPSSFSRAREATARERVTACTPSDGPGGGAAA

[4] = target: T1, Kappa-type opioid receptor; experiment: KOR antagonists by imaging, SAR follow-up, image-based (AID 2348); assay type: functional
[5] = target: T3, Delta-type opioid receptor; experiment: DOR agonists, SAR follow-up, image-based (AID 2370); assay type: functional
[6] = target: T1, Kappa-type opioid receptor; experiment: SAR analysis of small molecule agonists of the kappa opioid receptor via a luminescent beta-arrestin assay. [Related pubchem assays (depositor defined):AID1777, AID1786, AID1966, AID2133, AID2136, AID2348, AID2352, AID2357, AID2359, AID2370, AID2420, AID2478, AID2491, AID2492, AID2493, AID2497, AID2498, AID2500, AID449737, AID488822, AID488842]; assay type: functional
[7] = target: T1, Kappa-type opioid receptor; assay type: functional; remark: listed apart in the source
[8] = target: T1, Kappa-type opioid receptor; experiment: KOR agonist analogs, imaging readout, SAR follow-up, image-based (AID 2359); assay type: functional
[9] = target: T3, Delta-type opioid receptor; experiment: DOR antagonists, SAR follow-up, image-based (AID 2357); assay type: functional
[10] = target: T3, Delta-type opioid receptor; experiment: HTS Image-Based Screen for Antagonists of the DOR Receptor. [Related pubchem assays (depositor defined):AID1777, AID1785, AID1786, AID2133]; assay type: functional
Mu-type opioid receptor [11] = target: T2, Mu-type opioid receptor; experiment: MOR antagonists, SAR follow-up, image-based (AID 2420); assay type: functional;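 note: compounds added before stimulation of receptor with agonist DAMGO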
Mu-type opioid receptor [12] = target: T2, Mu-type opioid receptor; experiment: HTS Image-Based Screen for Agonists of the MOR Receptor. [Related pubchem assays (depositor defined):AID1777, AID1785, AID1786, AID2133]; assay type: functional
[13] = target: Acylamino-acid-releasing enzyme (Homo sapiens, UniProt P13798); experiment: PME-1 inhibitor potency by in-gel ABPP, dose response, selectivity assay for PME-1 inhibitor project, cell lysate, mouse brain cytosol, FP-rhodamine, panel member APEH Assay Panel member description: Inhibition of N-acylaminoacyl-peptide hydrolase (APEH) (anti-target) (AID 2366)
Acylamino-acid-releasing enzyme, sequence (P13798 whole entry): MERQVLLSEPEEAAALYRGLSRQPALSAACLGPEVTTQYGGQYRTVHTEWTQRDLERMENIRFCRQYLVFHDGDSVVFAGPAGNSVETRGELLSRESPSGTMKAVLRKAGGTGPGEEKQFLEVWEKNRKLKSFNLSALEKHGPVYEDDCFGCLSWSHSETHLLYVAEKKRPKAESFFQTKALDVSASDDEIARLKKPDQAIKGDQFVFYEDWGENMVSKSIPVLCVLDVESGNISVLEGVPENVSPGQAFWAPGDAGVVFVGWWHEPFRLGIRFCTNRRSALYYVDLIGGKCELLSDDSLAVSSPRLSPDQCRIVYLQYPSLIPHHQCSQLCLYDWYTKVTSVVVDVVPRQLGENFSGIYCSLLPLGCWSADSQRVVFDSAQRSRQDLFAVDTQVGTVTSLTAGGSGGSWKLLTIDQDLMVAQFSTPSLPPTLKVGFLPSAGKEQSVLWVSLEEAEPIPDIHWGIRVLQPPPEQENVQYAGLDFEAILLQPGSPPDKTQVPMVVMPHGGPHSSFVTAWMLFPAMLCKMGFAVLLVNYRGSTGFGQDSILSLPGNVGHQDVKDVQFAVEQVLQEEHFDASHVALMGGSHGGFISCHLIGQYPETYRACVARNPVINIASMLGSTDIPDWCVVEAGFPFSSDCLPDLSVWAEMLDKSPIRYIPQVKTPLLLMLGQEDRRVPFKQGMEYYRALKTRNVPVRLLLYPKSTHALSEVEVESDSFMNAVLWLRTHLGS

[14] = Late stage results from the probe development effort to identify inhibitors of the protein methylesterase PME-1: Luminescence-based counterscreen assay to identify cytotoxic compounds.; assay type: functional
[15] = target: Eukaryotic translation initiation factor 4H (Homo sapiens, UniProt Q15056); experiment: human eIF4H binding inhibitors, primary screen, translation initiation inhibitor project, biochemical, uHTS, fluorescence polarization (AID 2012)
[16] = target: DNA dC->dU-editing enzyme APOBEC-3G (Homo sapiens, UniProt Q9HC16); assay type: functional;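 note: Dose-response counterscreen measuring inhibition of APOBEC3G DNA deaminase activity, run while confirming APOBEC3A inhibitors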
DNA dC->dU-editing enzyme APOBEC-3G, sequence (Q9HC16 whole entry): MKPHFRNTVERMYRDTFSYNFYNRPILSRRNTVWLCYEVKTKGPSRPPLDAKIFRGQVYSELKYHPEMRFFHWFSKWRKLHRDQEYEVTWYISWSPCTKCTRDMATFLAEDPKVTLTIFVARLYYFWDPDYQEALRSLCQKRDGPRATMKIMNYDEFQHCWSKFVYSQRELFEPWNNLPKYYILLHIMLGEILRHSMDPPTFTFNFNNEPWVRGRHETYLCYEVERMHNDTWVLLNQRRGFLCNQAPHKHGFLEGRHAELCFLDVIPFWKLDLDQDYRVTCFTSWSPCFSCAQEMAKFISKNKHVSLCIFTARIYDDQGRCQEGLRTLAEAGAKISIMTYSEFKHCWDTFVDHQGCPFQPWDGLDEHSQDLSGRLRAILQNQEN

[17] = target: Polyadenylate-binding protein 1 (Homo sapiens, UniProt P11940); experiment: PABP poly(A) RNA binding inhibitors, primary screen, biochemical, fluorescence polarization, uHTS (AID 2014)
Polyadenylate-binding protein 1, sequence (P11940 whole entry): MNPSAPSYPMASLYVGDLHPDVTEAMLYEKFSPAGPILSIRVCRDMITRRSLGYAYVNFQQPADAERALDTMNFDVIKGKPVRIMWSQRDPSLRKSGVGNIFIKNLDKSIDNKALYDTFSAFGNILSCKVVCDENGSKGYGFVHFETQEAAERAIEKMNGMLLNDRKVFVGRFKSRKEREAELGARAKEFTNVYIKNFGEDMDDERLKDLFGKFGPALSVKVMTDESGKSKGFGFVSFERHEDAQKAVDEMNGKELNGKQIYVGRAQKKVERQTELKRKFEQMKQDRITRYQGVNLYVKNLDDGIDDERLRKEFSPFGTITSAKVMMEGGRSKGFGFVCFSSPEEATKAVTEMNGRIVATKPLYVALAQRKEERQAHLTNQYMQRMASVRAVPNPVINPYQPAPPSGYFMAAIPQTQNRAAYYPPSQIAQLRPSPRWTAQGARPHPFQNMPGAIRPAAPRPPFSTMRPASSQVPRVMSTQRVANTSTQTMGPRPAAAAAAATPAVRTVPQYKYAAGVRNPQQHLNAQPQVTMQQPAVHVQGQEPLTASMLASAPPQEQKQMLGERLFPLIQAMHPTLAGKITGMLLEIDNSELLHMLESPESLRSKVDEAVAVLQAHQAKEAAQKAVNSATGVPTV

[18] = target: DNA dC->dU-editing enzyme APOBEC-3A (Homo sapiens, UniProt P31941); experiment: Dose Response confirmation of small molecule APOBEC3A DNA Deaminase Inhibitors via a fluorescence-based single-stranded DNA deaminase assay. [Related pubchem assays (depositor defined):AID493011, AID493024]; assay type: functional
DNA dC->dU-editing enzyme APOBEC-3A, sequence (P31941 whole entry, the tested form may be a part): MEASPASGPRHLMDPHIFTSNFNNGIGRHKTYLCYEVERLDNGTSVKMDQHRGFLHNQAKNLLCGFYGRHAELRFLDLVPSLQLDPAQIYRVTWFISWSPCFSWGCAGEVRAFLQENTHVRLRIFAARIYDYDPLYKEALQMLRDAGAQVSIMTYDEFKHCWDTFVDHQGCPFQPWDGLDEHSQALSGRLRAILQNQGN

[19] = target: T4, Type-1 angiotensin II receptor (Homo sapiens, UniProt P30556); experiment: AT1 receptor agonists, dose response, selectivity assay for APJ receptor agonist project, cell-based, uHTS hits (AID 488865); assay type: functional;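 note: beta-arrestin recruitment to AT1 measured by enzyme fragment complementation luminescence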
T4 sequence (P30556 whole entry): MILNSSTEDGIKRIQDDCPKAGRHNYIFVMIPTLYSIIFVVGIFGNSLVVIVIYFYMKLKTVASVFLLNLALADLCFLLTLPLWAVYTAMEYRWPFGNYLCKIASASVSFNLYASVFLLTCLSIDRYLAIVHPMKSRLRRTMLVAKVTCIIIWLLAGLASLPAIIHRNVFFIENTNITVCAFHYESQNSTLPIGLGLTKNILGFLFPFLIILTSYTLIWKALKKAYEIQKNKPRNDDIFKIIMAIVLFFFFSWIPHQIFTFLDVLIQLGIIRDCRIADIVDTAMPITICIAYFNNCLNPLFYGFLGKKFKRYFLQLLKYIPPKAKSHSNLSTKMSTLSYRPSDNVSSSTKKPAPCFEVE

Vero = experiment: cells; assay type: functional; settings: Chlorocebus sabaeus
[20] = target: Alkaline phosphatase, placental type (Homo sapiens, UniProt P05187); experiment: PLAP enzyme inhibitors, confirmation, biochemical, luminescence (AID 1512); assay type: functional
Alkaline phosphatase, placental type, sequence (P05187 whole entry): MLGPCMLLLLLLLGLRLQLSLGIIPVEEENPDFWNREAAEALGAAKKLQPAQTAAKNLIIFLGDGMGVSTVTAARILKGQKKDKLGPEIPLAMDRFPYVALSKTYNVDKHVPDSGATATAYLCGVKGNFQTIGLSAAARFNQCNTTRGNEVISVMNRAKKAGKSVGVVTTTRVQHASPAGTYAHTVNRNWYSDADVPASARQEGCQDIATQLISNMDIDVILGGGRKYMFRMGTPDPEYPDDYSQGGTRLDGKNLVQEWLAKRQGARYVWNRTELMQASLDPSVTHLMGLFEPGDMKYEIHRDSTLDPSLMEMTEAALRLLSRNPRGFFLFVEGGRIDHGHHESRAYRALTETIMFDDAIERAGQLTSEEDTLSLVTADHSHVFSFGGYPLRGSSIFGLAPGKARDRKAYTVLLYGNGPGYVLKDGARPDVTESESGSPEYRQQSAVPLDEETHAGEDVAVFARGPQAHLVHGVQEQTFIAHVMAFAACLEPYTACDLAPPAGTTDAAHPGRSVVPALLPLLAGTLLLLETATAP

Estrogen receptor = target: T5, Estrogen receptor (Homo sapiens, UniProt P03372);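 note: potency for inhibiting coactivator peptide recruitment to the receptor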
T5 sequence (P03372 whole entry): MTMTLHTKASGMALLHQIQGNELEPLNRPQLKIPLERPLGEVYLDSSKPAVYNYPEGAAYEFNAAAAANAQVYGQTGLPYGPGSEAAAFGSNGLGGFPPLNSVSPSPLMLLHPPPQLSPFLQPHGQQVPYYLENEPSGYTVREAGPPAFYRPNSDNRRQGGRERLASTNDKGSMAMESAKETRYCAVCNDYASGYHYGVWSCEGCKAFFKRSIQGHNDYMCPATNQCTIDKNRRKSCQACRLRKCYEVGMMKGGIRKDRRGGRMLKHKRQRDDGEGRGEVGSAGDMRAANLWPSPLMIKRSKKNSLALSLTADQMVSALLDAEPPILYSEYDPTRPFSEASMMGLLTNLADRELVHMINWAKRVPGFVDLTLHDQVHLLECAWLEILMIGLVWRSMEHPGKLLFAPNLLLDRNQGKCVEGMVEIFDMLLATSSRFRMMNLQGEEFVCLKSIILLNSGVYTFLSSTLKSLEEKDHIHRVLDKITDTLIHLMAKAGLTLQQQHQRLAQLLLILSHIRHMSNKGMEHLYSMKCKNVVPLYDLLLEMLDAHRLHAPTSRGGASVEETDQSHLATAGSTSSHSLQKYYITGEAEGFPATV

[21] = target: T6, Alkaline phosphatase, tissue-nonspecific isozyme (Homo sapiens, UniProt P05186); experiment: human TNAP enzyme inhibitors, SAR follow-up, biochemical, luminescent, dose response (AID 1056)
T6 sequence (P05186 whole entry): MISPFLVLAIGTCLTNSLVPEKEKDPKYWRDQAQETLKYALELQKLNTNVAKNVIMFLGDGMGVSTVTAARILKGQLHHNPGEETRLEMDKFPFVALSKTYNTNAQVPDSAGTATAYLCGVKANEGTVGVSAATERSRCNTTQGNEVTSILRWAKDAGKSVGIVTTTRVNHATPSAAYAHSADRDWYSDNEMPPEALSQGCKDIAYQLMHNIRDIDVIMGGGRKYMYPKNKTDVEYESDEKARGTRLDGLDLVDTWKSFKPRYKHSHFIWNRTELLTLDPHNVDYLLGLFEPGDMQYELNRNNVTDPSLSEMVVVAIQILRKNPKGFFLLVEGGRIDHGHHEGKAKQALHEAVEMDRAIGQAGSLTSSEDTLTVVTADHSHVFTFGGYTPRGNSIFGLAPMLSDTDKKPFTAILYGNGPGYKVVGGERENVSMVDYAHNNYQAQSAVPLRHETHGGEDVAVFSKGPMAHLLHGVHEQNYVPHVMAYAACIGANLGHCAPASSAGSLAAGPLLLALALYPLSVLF

T2 sequence (P35372 whole entry): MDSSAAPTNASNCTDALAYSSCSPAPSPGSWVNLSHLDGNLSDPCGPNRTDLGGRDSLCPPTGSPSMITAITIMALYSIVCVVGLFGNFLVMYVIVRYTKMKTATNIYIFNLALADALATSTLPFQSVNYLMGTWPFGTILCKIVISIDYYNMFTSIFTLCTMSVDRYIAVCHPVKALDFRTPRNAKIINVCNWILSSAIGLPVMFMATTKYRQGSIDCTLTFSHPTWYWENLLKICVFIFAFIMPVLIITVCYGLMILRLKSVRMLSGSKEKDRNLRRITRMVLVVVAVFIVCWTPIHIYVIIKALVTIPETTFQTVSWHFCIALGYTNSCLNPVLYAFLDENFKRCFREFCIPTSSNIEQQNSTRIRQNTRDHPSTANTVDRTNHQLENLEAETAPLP
T1 sequence (P41145 whole entry): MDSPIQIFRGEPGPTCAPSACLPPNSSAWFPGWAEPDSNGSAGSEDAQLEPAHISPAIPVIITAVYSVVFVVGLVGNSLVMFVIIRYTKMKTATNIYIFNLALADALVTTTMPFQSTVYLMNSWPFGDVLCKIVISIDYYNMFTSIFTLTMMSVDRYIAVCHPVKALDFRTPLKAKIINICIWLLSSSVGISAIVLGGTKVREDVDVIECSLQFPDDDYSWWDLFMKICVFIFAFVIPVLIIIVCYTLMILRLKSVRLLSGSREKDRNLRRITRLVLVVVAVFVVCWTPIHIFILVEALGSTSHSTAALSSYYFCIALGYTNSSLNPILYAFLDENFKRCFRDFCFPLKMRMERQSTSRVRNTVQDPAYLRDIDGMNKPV

Q: For `O=C(c1ccccn1)N(Cc1ccco1)C1(C(=O)NC2CCCCC2)CCCCC1`, which EC50 [1] is on record?
A: < 0.5 µM

Q: What about the EC50 (Mu-type opioid receptor [2]) of the same compound?
A: > 32 µM (inactive)

Q: And the EC50 [3]?
A: > 32 µM (inactive)

Q: And the IC50 [4]?
A: > 32 µM (inactive)

Q: What about the EC50 [5] of the same compound?
A: > 32 µM (inactive)

Q: What about the EC50 [6] of the same compound?
A: 0.821 µM (active)

Q: And the EC50 [7]?
A: 0.22 µM

Q: And the EC50 [8]?
A: 0.125 µM (active)

Q: And the IC50 [9]?
A: > 32 µM (inactive)

Q: And the IC50 [10]?
A: > 32 µM (inactive)

Q: What about the IC50 (Mu-type opioid receptor [11]) of the same compound?
A: > 32 µM (inactive)

Q: What about the EC50 (Mu-type opioid receptor [12]) of the same compound?
A: > 32 µM (inactive)

Q: Which results are given for `N#C/C(=C\c1cccn1S(=O)(=O)c1cccc(C#N)c1)S(=O)(=O)c1ccc(F)cc1`?
A: IC50 [13]: > 50 µM (inactive); CC50 [14]: 100 µM (active)

Q: With `Oc1ccccc1C=N[n+]1ccccc1` as the compound, how does the IC50 [15] read?
A: > 100 µM (inactive)

Q: What about the IC50 [16] of the same compound?
A: 5.33 µM (active)

Q: What about the IC50 [17] of the same compound?
A: 5.32 µM (active)

Q: And the IC50 [18]?
A: 2.88 µM (active)

Q: With `CCN(CC)CCNC(=O)c1cc(-c2cccnc2)nc2ccc(S(=O)(=O)N3CCC(C)CC3)cc12` as the compound, how does the EC50 [19] read?
A: > 100 µM (inactive)

Q: What about the CC50 (Vero) of the same compound?
A: 9.06 µM (active)

Q: What does the source list for `CNc1nnc(-c2cc3cc(Cl)ccc3oc2=O)s1`?
A: IC50 [20]: > 100 µM (inactive); IC50 (Estrogen receptor): 11.1 µM (active); IC50 [21]: > 100 µM (inactive)
